Source: patent US12606529B2, “Sulfur and amide tropolone inhibitors of nucleotidyl transferases and uses therefor” (Saint Louis University, priority 2019, dated 2026)
Converted amounts (≈) assume the structure as drawn.

What was measured:
[1] = tested on: C. neoformans var. grubii, KN99; test: C. neoformans growth inhibition assay (limiting dilution); assay type: cell-based, Cryptococcus neoformans; details: Cryptococcus neoformans, 48 h, Table 2 amides; 48 h, 35° C., tested 0.19 to 50 μM; read-out: C. neoformans MIC80
Method: Cell types used for C. neoformans studies. All inhibition assays were performed with C. neoformans var. grubii, KN99 (serotype A, MAT). Two clinical strains of C. neoformans var. grubii, serotype A, were provided by Tamara Doering and Andre Spec. […] Cells were diluted to OD650 0.001 in YNB-02 02 (0.67% yeast nitrogen base, 0.2% dextrose, pH 7.0 with 50 mM MOPs)+1% DMSO prior to addition to the plates for the inhibition assays.
C. neoformans growth inhibition assays. Compounds were tested in a limiting dilution assay with a starting optical density (at 650 nm) of 0.001 in YNB-02 plus 1% DMSO. Cells plus compound were incubated in 96-well clear round bottom plates covered with a Breath-easy® membrane without shaking for 48 hours at 35° C. Before measuring cell density, plates were shaken on a microtiter plate shaker at 900 rpm for 3 minutes to resuspend cells and optical density was measured at 650 nm. […] Each assay was done in triplicate and all values are the average of two or more independent assays. The data are presented as the average cell density as a percent of DMSO-only treated cells. MICs are reported as the minimal concentration needed to inhibit 80% of C. neoformans growth relative to vehicle-treated controls.

[2] = target: T1, human RNaseH1 (Homo sapiens, UniProt O60930); test: Biochemical inhibition of human RNaseH1 activity; details: Table 2 amides; read-out: HuRH1 IC50
T1 sequence (O60930 1-286): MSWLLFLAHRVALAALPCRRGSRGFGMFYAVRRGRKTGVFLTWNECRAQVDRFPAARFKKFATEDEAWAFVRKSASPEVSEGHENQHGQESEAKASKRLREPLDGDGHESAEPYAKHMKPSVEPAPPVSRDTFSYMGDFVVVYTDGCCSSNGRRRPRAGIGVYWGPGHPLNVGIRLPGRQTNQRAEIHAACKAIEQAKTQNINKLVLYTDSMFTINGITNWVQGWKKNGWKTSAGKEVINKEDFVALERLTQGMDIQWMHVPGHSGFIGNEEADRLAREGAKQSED
Method: Biochemical inhibition of human RNaseH1 activity. Quantitative inhibition of the human RNaseH1 in the biochemical assays was assessed using a molecular beacon assay as described previously (Edwards et al., 2017). Recombinant human RNaseH 1 (0.3 μg) was incubated with 100 nM RNA:DNA substrate, 50 mM HEPES pH 8.0, 100 mM NaCl, 2 mM Tris(2-carboxyethyl)phosphine hydrochloride (TCEP), 0.05% Tween20, 5 units of RNaseOut, test compounds (0 to 500 μM), and 5% DMSO in a 100 μL reaction volume. The substrate was formed by annealing a complementary RNA oligonucleotide to a hairpin DNA oligonucleotide to hold the hairpin DNA oligonucleotide in an open conformation. The DNA oligonucleotide has a 5′ fluorescein reporter and a 3′ black hole quencher. When the RNA is degraded from the substrate the DNA oligonucleotide closes to form a hairpin structure, decreasing in signal intensity. Reactions were initiated with 5 mM MgCl2 and fluorescence was read using a Synergy HTS multi-mode plate reader at 37° C. Alternatively, the HBV RNaseH version used was MBP-HRHgtCΔ5, a genotype C isolate which lacks the C-terminal 35 amino acids of the HBV RNaseH domain that are predicted to be unstructured. Quantitative inhibition of the human RNaseH1 in biochemical assays was assessed using a FRET-based RNaseH assay under conditions previously reported for an RNaseH molecular beacon assay (Edwards et al., 2017). […] Cleavage of the RNA strand released the fluorescein from quenching, increasing fluorescence. Reactions were monitored for 90 min at 37° C. in a plate reader and initial reaction rates were calculated. Reactions contained escalating concentrations of the compounds.

[3] = in vitro; details: human, HepDES19 cells
[4] = tested on: HSV-1; test: Anti-HSV-1 replication assay (Vero cells, plaque titer); assay type: cell-based, herpes simplex virus 1; details: for log reduction at 5 µM / log reduction at 1 µM / log reduction at 0.33 µM: Human alphaherpesvirus 1, Vero, Table 2 amides; for log reduction at 5 µM: compound at 5 μM, read-out: HSV-1 suppression 5 μM; for log reduction at 5 µM / log reduction at 1 µM: values separated by / are repeats; for log reduction at 1 µM: compound at 1 μM, read-out: HSV-1 suppression 1 μM; for log reduction at 0.33 µM: compound at 0.33 μM, read-out: HSV-1 suppression 0.33 μM

Structure (SMILES) | MIC80 [1] [µM] | IC50 [2] [µM] | CC50 at 24 h ([3]; CC50 (μM), Table 2 amides, MTT) [µM] | log reduction at 5 µM [4] | CC50 at 24 h ([3]; CC50) [µM] | Reduction of HSV-1 titers / suppression of HSV-1 replication at 5 μM ([4]; 5 μM, plaque forming units (PFU)/ml) | log reduction at 1 µM [4] | log reduction at 0.33 µM [4]
Cc1cc(O)c(=O)c(O)cc1C(=O)NCC1COC(C)(C)O1 (stereo not shown) [compound 808] | 9 (≈ 2.78 µg/mL) | 71.9 ± 12 | 14.9 ± 8.6 |  |  |  |  | 
Cc1cc(O)c(=O)c(O)cc1C(=O)NC(CCCCNC(=O)OC(C)(C)C)C(=O)OC(C)(C)C (stereo not shown) [compound 869] | 9 (≈ 4.33 µg/mL) | 602 ± 273 | 14.6 ± 3.4 | -0.147 |  |  |  | 
Cc1cc(O)c(=O)c(O)cc1C(=O)NCc1ccc(-c2ccccc2)cc1 [compound 539] | 4.5 (≈ 1.63 µg/mL) | 50 ± 9 | 3.6 ± 1.8 | 5.3 | 1.8 | more than 5 log10 | 0.52 | 
Cc1cc(O)c(=O)c(O)cc1C(=O)Nc1cccc(Cc2ccccc2)c1 [compound 799] | 2 (≈ 0.723 µg/mL) | 713 ± 496 | 5.3 ± 3.1 | 3.88 |  |  | 0.411 | 0.0848
COC(=O)[C@@H](NC(=O)c1cc(O)c(=O)c(O)cc1C)C(C)C [compound 793] | 18 (≈ 5.57 µg/mL) | 178 ± 46.6 | 18.3 ± 9.8 |  |  |  |  | 
Cc1cc(O)c(=O)c(O)cc1C(=O)Nc1ccccc1OCc1ccccc1 [compound 835] | 4.5 (≈ 1.7 µg/mL) | 725 ± 427 | 10.3 ± 5.2 | 5.23 |  |  |  | 
Cc1cc(O)c(=O)c(O)cc1C(=O)Nc1ccccc1Cc1ccccc1 [compound 834] | 9 (≈ 3.25 µg/mL) | 37.2 ± 17.2 | 16.4 ± 11.2 | 1.8 |  |  |  | 
Cc1cc(O)c(=O)c(O)cc1C(=O)NCc1ccc(N2CCCC2)cc1 [compound 1019] | 4.5 (≈ 1.59 µg/mL) | 383 ± 471 | 10.7 ± 6 |  |  |  |  | 
Cc1cc(O)c(=O)c(O)cc1C(=O)N1CCN(C(=O)c2ccc([N+](=O)[O-])c3nonc23)CC1 [compound 920] | 50 (≈ 22.8 µg/mL) | 40.2 ± 39.7 | 19.3 ± 14.6 |  |  |  |  | 
Cc1cc(O)c(=O)c(O)cc1C(=O)NCCNS(=O)(=O)c1ccc(C(F)(F)F)cc1 [compound 874] | 14 (≈ 6.25 µg/mL) | 52.6 | 17.7 ± 6.7 | -0.15 |  |  |  | 
Cc1cc(O)c(=O)c(O)cc1C(=O)NCC1CCOC1 (stereo not shown) [compound 1018] | 50 (≈ 14 µg/mL) | 129 ± 123 | 41.2 ± 33.4 |  |  |  |  | 
COC(=O)[C@H](CC(C)C)NC(=O)c1cc(O)c(=O)c(O)cc1C [compound 794] | 9 (≈ 2.91 µg/mL) | 48.1 ± 15.4 | 14.7 ± 9.6 |  |  |  |  | 
Cc1cc(O)c(=O)c(O)cc1C(=O)N1CCN(C(=O)C2CCCCC2)CC1 [compound 872] | 20 (≈ 7.49 µg/mL) | 93 ± 53.3 | 14.4 ± 3.7 | 0.643 |  |  | -0.158 | 
Cc1cc(O)c(=O)c(O)cc1C(=O)Nc1ccc(Cc2ccccc2)cc1 [compound 798] | 1.2 (≈ 0.434 µg/mL) | 467 | 3.3 ± 1.8 | 4.39 | 3.3 |  | 2.32 | -0.0103
COC(=O)[C@H](Cc1c[nH]c2ccccc12)NC(=O)c1cc(O)c(=O)c(O)cc1C [compound 797] | 9 (≈ 3.57 µg/mL) | 44 ± 27.1 | 13.9 ± 13.3 |  |  |  |  | 
Cc1cc(O)c(=O)c(O)cc1C(=O)Nc1cccc(OCc2ccccc2)c1 [compound 836] | 4.5 (≈ 1.7 µg/mL) | 606 ± 482 | 5.4 ± 3.5 | 5.2 |  |  |  | 
Cc1ccc(CNC(=O)c2cc(O)c(=O)c(O)cc2C)c(C)c1 [compound 809] | 3.3 (≈ 1.03 µg/mL) | 19.6 ± 20 | 5.8 ± 6.5 | 4.69 |  |  | 0.0278 | 
Cc1cc(O)c(=O)c(O)cc1C(=O)N1CCN(C(=O)c2ccc(Cl)cc2)CC1 [compound 875] | 7 (≈ 2.82 µg/mL) | 17.2 ± 11 | 4.7 ± 1.8 | 1.32 |  |  | 0.0449 | 
